Experimental data as given in BigSolDB 2.1.

O=C(O)CCCCCCCCCCC(=O)O
solubility (mole fraction)
Conditions | 288.15 K | 293.15 K | 298.15 K | 303.15 K | 308.15 K | 313.15 K | 318.15 K | 323.15 K | 328.15 K
in acetic acid | 0.00316 | 0.00434 | 0.00581 | 0.00776 | 0.0103 | 0.0136 | 0.0179 | 0.0235 | 0.0306
in acetone | 0.00286 | 0.00402 | 0.00543 | 0.00757 | 0.00995 | 0.0133 | 0.0178 | 0.0238 | 0.0318
in ethanol | 0.00793 | 0.0105 | 0.0138 | 0.0181 | 0.0236 | 0.0305 | 0.0394 | 0.0506 | 0.0648
in ethyl acetate | 0.00115 | 0.00165 | 0.00231 | 0.00327 | 0.00461 | 0.00638 | 0.00879 | 0.0121 | 0.0165
